Entries after “also recorded” stand apart in the source; their conditions may differ.
Assays:
[1] = Solubility (physical properties); format: physicochemical; details: qualitative, in words
[2] = target: β-galactoside-α-2, 6-sialyltransferase; assay: Inhibition of β-galactoside-α-2,6-sialyltransferase enzyme activity (biosynthesis of sugar chains containing sialic acid, test system of Paulson et al.); format: biochemical; details: β-galactoside-α-2,6-sialyltransferase 1×10^-6 units, 0.075 nmol CMP-14C sialic acid, 3 mM β-methyllactosaminide, pH 6.5, 37° C., 10 minutes; read-out: 50% activity inhibition concentration
Procedure: In other words, the tests were conducted using a test system of the biosynthesis of sialic acid-sugar chains containing sialic acid which was reported by Paulson et al.
A tester solution was prepared containing the following respective reagents in 50 μl of final contents:
100 mM sodium cacodylate buffer solution (pH 6.5);
0.075 nmol cytidine-monophosphate-14C sialic acid;
3 mM β-methyllactosaminide;
A specimen compound was added in 50 μl of the tester solution, and, with addition of 1×10^-6 units of β-galactoside-α-2, 6-sialyltransferase commercially available, the mixture was left to stand at 37° C. for 10 minutes. 1 ml of 5 mM phosphoric acid buffer solution was added to stop the reaction. Then the solution was passed through an anion-exchange resin column (Dowex-1X8, phosphoric acid type, 1 ml) to remove unreacted cytidine-monophosphate-14C sialic acid. Further, the column was washed with 1 ml of 5 mM phosphoric acid buffer solution to recover radioactive sialic acid-containing sugar chains. The radioactivity was measured by a liquid scintillation counter.
The thus-measured radioactivity was shown by percentage to the radioactivity of untreated section not including the specimen compound, which was defined as inhibition activity.

[3] = Stability in acid (physical properties); format: physicochemical

For `CC(=O)N[C@H]1C(O)O[C@H](CO)[C@@H](O[C@@H]2O[C@H](C)[C@H](O)[C@H](O)[C@H]2O)[C@@H]1O` (stereo partly drawn) [Sugar compound B, α- and β-2-acetamide-2-deoxy-4-O-(6-deoxy-β-D-galactopyranosyl)-D-glucose], the Solubility [1] was “Soluble in water, alkaline solutions, acid solutions, various buffer solutions, methanol, and ethanol. Hardly soluble in hexane and in chloroform”.

In the case of `CO[C@@H]1O[C@H](CO)[C@@H](O[C@@H]2O[C@H](COC3CCCCO3)[C@H](O)[C@H](O)[C@H]2O)[C@H](O)[C@H]1NC(C)=O` (stereo partly drawn) [Sugar compound G, methyl-2-acetamide-2-deoxy-4-O-(6-O-tetrahydropyranyl-β-D-galactopyranosyl)-β-D-glucopyranoside], the Solubility [1] is reported as “Soluble in water, alkaline solutions, acid solutions, various buffer solutions, methanol, and ethanol. Hardly soluble in hexane and in chloroform”.

With `CO[C@@H]1O[C@H](COC(C)=O)[C@@H](O[C@@H]2O[C@H](CO)[C@H](O)[C@H](OC(C)=O)[C@H]2OC(C)=O)[C@H](OC(C)=O)[C@H]1NC(C)=O` [intermediate d, methyl-2-acetamide-3,6-di-O-acetyl-2-deoxy-4-O-(2,3-di-O-acetyl-β-D-galactopyranosyl)-β-D-glucopyranoside] the Solubility [1] was “Soluble in chloroform, methanol, and ethanol. Hardly soluble in water and various buffer solutions”.

For `CO[C@@H]1O[C@H](CO)[C@@H](O[C@@H]2O[C@H](CS)[C@H](O)[C@H](O)[C@H]2O)[C@H](O)[C@H]1NC(C)=O` [Sugar compound H, methyl-2-acetamide-2-deoxy-4-O-(6-mercapto-β-D-galactopyranosyl)-β-D-glucopyranoside], the Solubility [1] was “Soluble in water, alkaline solutions, acid solutions, various buffer solutions, methanol, and ethanol. Hardly soluble in hexane and in chloroform”.

For `CO[C@@H]1O[C@H](COC(C)=O)[C@@H](O[C@@H]2O[C@H](CO)[C@H](OC(C)=O)[C@H](OC(C)=O)[C@H]2OC(C)=O)[C@H](OC(C)=O)[C@H]1NC(C)=O` [intermediate f, methyl-2-acetamide-3,6-di-O-acetyl-2-deoxy-4-O-(2,3,4-tri-O-acetyl-β-D-galactopyranosyl)-β-D-glucopyranoside], the Solubility [1] was “Soluble in chloroform, methanol, and ethanol. Hardly soluble in water and various buffer solutions”.

With “2-acetamide-2-deoxy-4-O-(6-deoxy-β-D-galactopyranosyl)-β-D-glucopyranosylated α2-macroglobulin [Sugar compound F]” the IC50 [2] was 1 µM and the Solubility [1] was “Soluble in water and various buffer solutions. Hardly soluble in organic solvents”.

Work on “2-acetamide-2-deoxy-4-O-(6-deoxy-β-D-galactopyranosyl)-β-D-glucopyranosylated ovalbumin [Sugar compound C, sugar compound represented by the aforementioned formula (1) in which R^1 is ovalbumin and R^2 is hydrogen]” yielded an IC50 [2] of 10 µM.

In the case of `CO[C@@H]1O[C@H](COC(C)=O)[C@@H](O[C@@H]2O[C@H](COC3CCCCO3)[C@H](OC(C)=O)[C@H](OC(C)=O)[C@H]2OC(C)=O)[C@H](OC(C)=O)[C@H]1NC(C)=O` (stereo partly drawn) [intermediate g, methyl-2-acetamide-3,6-di-O-acetyl-2-deoxy-4-O-(2,3,4-tri-O-acetyl-6-O-tetrahydropyranyl-β-D-galactopyranosyl)-β-D-glucopyranoside], the Solubility [1] is reported as “Soluble in chloroform, methanol, and ethanol. Hardly soluble in water and various buffer solutions”.

For `CO[C@@H]1O[C@H](COC(C)=O)[C@@H](O[C@@H]2O[C@H](COS(=O)(=O)c3ccc(C)cc3)[C@H](OC(C)=O)[C@H](OC(C)=O)[C@H]2OC(C)=O)[C@H](OC(C)=O)[C@H]1NC(C)=O` [intermediate h, methyl-2-acetamide-3,6-di-O-acetyl-2-deoxy-4-O-(2,3,4-tri-O-acetyl-6-O-p-toluenesulfonyl-β-D-galactopyranosyl)-β-D-glucopyranoside], the Solubility [1] was “Soluble in chloroform, methanol, and ethanol. Hardly soluble in water and various buffer solutions”.

In the case of `CO[C@@H]1O[C@H](COC(C)=O)[C@@H](O[C@@H]2O[C@H](CSC(C)=O)[C@H](OC(C)=O)[C@H](OC(C)=O)[C@H]2OC(C)=O)[C@H](OC(C)=O)[C@H]1NC(C)=O` [intermediate i, methyl-2-acetamide-3,6-di-O-acetyl-2-deoxy-4-O-(2,3,4-tri-O-acetyl-6-S-acetyl-6-deoxy-β-D-galactopyranosyl)-β-D-glucopyranoside], the Solubility [1] is reported as “Soluble in chloroform, methanol, and ethanol. Hardly soluble in water and various buffer solutions”.

In the case of `CO[C@@H]1O[C@H](COC(C)=O)[C@@H](O[C@@H]2O[C@H](CO[Si](C)(C)C(C)(C)C)[C@H](OC(C)=O)[C@H](OC(C)=O)[C@H]2OC(C)=O)[C@H](OC(C)=O)[C@H]1NC(C)=O` [intermediate e, methyl-2-acetamide-3,6-di-O-acetyl-2-deoxy-4-O-(2,3,4-tri-O-acetyl-6-O-t-butyldimethylsilyl-β-D-galactopyranosyl)-β-D-glucopyranoside], the Solubility [1] is reported as “Soluble in chloroform, methanol, and ethanol. Hardly soluble in water and various buffer solutions”.

For “2-acetamide-2-deoxy-4-O-( 6-deoxy-β-D-galactopyranosyl)-β -D-glucopyranosylated fetuin [Sugar compound D]”, the IC50 [2] was 4.2 µM and the Solubility [1] was “Soluble in water and various buffer solutions. Hardly soluble in organic solvents”.

For `CO[C@@H]1O[C@H](COC(C)=O)[C@@H](O[C@@H]2O[C@@H]3COC(c4ccccc4)O[C@@H]3[C@H](OC(C)=O)[C@H]2OC(C)=O)[C@H](OC(C)=O)[C@H]1NC(C)=O` (stereo partly drawn) [intermediate c, methyl-2-acetamide-3,6-di-O-acetyl-2-deoxy-4-O-(2,3-di-O-acetyl-4,6-O-benzylidene-β-D-galactopyranosyl)-β-D-glucopyranoside], the Solubility [1] was “Soluble in chloroform, methanol, and ethanol. Hardly soluble in water and various buffer solutions”.

For `C[C@H]1O[C@H](OP(=O)(O)OP(=O)(O)OC[C@H]2O[C@@H](n3ccc(=O)[nH]c3=O)[C@H](O)[C@@H]2O)[C@H](O)[C@@H](O)[C@H]1O` [intermediate b, uridine 5'-diphosphate-6-deoxy-D-galactose], the Solubility [1] was “Soluble in water, alkaline solutions, and various buffer solutions; also recorded: Hardly soluble in organic solvents” and the Decomposition in acid [3] was “Decomposed in acid”.

With `CO[C@@H]1O[C@H](CO)[C@@H](O[C@@H]2O[C@H](C)[C@H](O)[C@H](O)[C@H]2O)[C@H](O)[C@H]1NC(C)=O` [Sugar compound A, methyl-2-acetamide-2-deoxy-4-O-(6-deoxy-β-D-galactopyranosyl)-β-D-glucopyranoside] the Solubility [1] was “Soluble in water, alkaline solutions, acid solutions, various buffer solutions, methanol, and ethanol. Hardly soluble in hexane and in chloroform”.

B1: 2-acetamide-2-deoxy-4-O-(6-deoxy-β-D-galactopyranosyl)-β-D-glucopyranosylated ovalbumin (conjugate, UniProt P01012 2-386, looked up)
Ovalbumin: GSIGAASMEFCFDVFKELKVHHANENIFYCPIAIMSALAMVYLGAKDSTRTQINKVVRFDKLPGFGDSIEAQCGTSVNVHSSLRDILNQITKPNDVYSFSLASRLYAEERYPILPEYLQCVKELYRGGLEPINFQTAADQARELINSWVESQTNGIIRNVLQPSSVDSQTAMVLVNAIVFKGLWEKAFKDEDTQAMPFRVTEQESKPVQMMYQIGLFRVASMASEKMKILELPFASGTMSMLVLLPDEVSGLEQLESIINFEKLTEWTSSNVMEERKIKVYLPRMKMEEKYNLTSVLMAMGITDVFSSSANLSGISSAESLKISQAVHAAHAEINEAGREVVGSAEAGVDAASVSEEFRADHPFLFCIKHIATNAVLFFGRCVSP
modifications: glycosylated with fucosyl-GlcNAc disaccharide
notes: sugar compound represented by the aforementioned formula (1) in which R^1 is ovalbumin and R^2 is hydrogen
For B1, the Solubility [1] was “Soluble in water and various buffer solutions. Hardly soluble in organic solvents”.

B2: 2-acetamide-2-deoxy-4-O-(6-deoxy-β-D-galactopyranosyl)-β-D-glucopyranosylated glycophorin (conjugate, UniProt P02724 20-150, looked up)
Glycophorin-A: LSTTEVAMHTSTSSSVTKSYISSQTNDTHKRDTYAATPRAHEVSEISVRTVYPPEEETGERVQLAHHFSEPEITLIIFGVMAGVIGTILLISYGIRRLIKKSPSDVKPLPSPDTDVPLSSVEIENPETSDQ
modifications: glycosylated with fucosyl-GlcNAc disaccharide
notes: sugar compound represented by the aforementioned formula (1) in which R^1 is glycophorin and R^2 is hydrogen
In the case of B2, the IC50 [2] is reported as 2.7 µM and the Solubility [1] is reported as “Soluble in water and various buffer solutions. Hardly soluble in organic solvents”.

— patent publication US5441932A, “Sugar compounds for inhibition of the biosynthesis of sugar chains containing sialic acid” (priority 1992, dated 1995)
